Results: patent publication US20180042231A1, “Systems and Methods for the Continuous On-Site Production of Peroxycarboxcylic Acid Solutions” (Eltron Water Systems, LLC, priority 2016, published 2018)

Experiments:
[1] = Degradation (self-decay) of PAA solution over time; format: physicochemical; details: for degradation rate of non-equilibrium PAA: 2% concentration
Source text: Sometimes it is desirable to remove the very strong odor of the final equilibrium PAA product, such as when it is used indoors. Anti-microbial efficacy is roughly the same whether the PAA is in an acidic or alkaline state. The two most significant differences are: 1) alkaline PAA has no odor and 2) alkaline PAA self-degrades very rapidly when the pH is above 8, usually at 5-10% per hour. In situations where the PAA is to be used within minutes or hours of when it is made alkaline, the addition of an alkali earth metal in solution with water can be used alone or with more water to both dilute the PAA and raise its pH to any desired level, eliminating its odor. At this point other materials may be added to the alkaline PAA such as detergents, fragrance additives and even foaming agents.
The system of the present invention is designed such that the PAA is produced in a unique manner which differs substantially from prior art processes, the end product being inherently not at equilibrium. At 2% concentration, it degrades at about 6% per day if the pH is below 7 (acidic) and at 5-10% per hour when the pH is above 7. Use of a stabilizer will not halt that decay. Accordingly, the system herein disclosed is designed to generate PAA to be used within minutes or hours of when it is made, thereby eliminating the need for a stabilizer used by every other PAA manufacturer in the world.

[2] = Dissolution of triacetin in water; format: physicochemical; details: room temperature
Source text: A second method involves pre-dissolving traicetin in water outside the generator using time and mixing to eliminate the strands and globules. This approach requires a significant amount of extra water to be supplied to the generator, since at room temperature, the maximum amount of triacetin that can be dissolved is only approximately 4%.

Compound | degradation rate of non-equilibrium PAA ([1]; pH above 7) | degradation rate of non-equilibrium PAA ([1]; pH below 7 (acidic)) | self-degradation rate of alkaline PAA ([1]; equilibrium PAA made alkaline, pH above 8) | maximum amount of triacetin that can be dissolved in water [2]
CC(=O)OO [PAA, peracetic acid] | 5-10 % per hour | about 6 % per day | 5-10 % per hour | –
CC(=O)OCC(COC(C)=O)OC(C)=O [triacetin, 1,2,3-triacetoxypropane] | – | – | – | approximately 4%
